Measured values: ChEMBL document CHEMBL3430912, “GSK Tres Cantos Anti-Kinetoplastid Screening (TCAKS) Data”

Columns and labels:
[1] = target: Sterol 14-alpha demethylase (Trypanosoma cruzi (strain CL Brener), UniProt Q7Z1V1); test: GSK_TCAKS: pIC50 CYP51 from Trypanosoma cruzi.; assay type: functional
Leishmania donovani [2] = test: (§1) GSK_TCAKS: pIC50 Leishmania donovani Imaging: Infected Macrophages. Assay plates (384-well) were prepared by adding 250nL of compound to each well. For single shot assay, the final compound concentration was 5 uM. […] Automated image analysis was performed with a script developed on Acapella High Content Imaging and Analysis Software (PerkinElmer). Output: Percent of infected macrophage cells were reported for each well.; assay type: functional, organism-based, Homo sapiens; conditions: THP-1
Trypanosoma cruzi [3] = test: GSK_TCAKS: pIC50 Trypanosoma cruzi viability assay using beta-GAL activity. This assay was run at single shot at 5uM compound concentration per well. The biological reagents consisted of NIH-3T3 host cells and trypomastigotes parasitic cells; both cell types were set to a 3.3 * 10^5 cells/mL dilution in assay DMEM by means of a CASY cell counter device using a 60um capillary. 6 uL of the mixture were dispensed per well (about 1 * 10^3 host-cells and 1 * 10^3 parasites) with a Multidrop Combi dispenser. […] In all wells, the percentage of DMSO never exceeded 0.5%. Plates incubated for four days at 37C, 5% CO2. The substrate used for the assay fluorescence intensity (FLINT) readout was resorufin-beta-D-galactopiranoside (Sigma-Aldrich) at 5uM per well. It was diluted in PBS supplemented with the soft detergent Igepal (Fluka).; assay type: functional, organism-based, Mus musculus; conditions: Tulahuen, NIH3T3
Trypanosoma cruzi [4] = test: (§2) GSK_TCAKS: pIC50 Trypanosoma cruzi Imaging: Infected Cells. […] Cells were then washed once with PBS before infection. T. cruzi trypomastigotes, collected at days 5 to 8 after infection from LLC-MK2 parasite infected cultures, were allowed to swim out for 4h at 37C from a centrifuged pellet (2,500 rpm/10 min/room temperature). Trypomastigotes were then collected and counted in a CASY Cell Counter. Trypomastigotes, in supplemented DMEM, were added to H9c2 cultures in a multiplicity of infection of 1 and incubated for 18 h. Cells were washed once with PBS before incubation of the infected H9c2 monolayer with trypsin (Life-Technologies) to detach cells from the flask. Cells were counted in a CASY Cell Counter using a 150 um capillary and their density set at 5 * 10^4 cells per mL in supplemented assay DMEM. Infected H9c2 were dispensed into 384-well poly-lysine coated assay plates at 50uL per well using a Multidrop Combi dispenser. After seeding them, the plates were incubated at 37C, 5% CO2 for 72h. Cultures were then fixed and stained by addition of 50 uL of a solution containing 8% formaldehyde and 4 uM DRAQ5 DNA dye (BioStatus, UK) per well. […] Five images were collected per well for reliable statistical analysis. Automated image analysis was performed with a script developed on Acapella High Content Imaging and Analysis Software (PerkinElmer). Output: percentage of infected cells per well as a second infection marker.; assay type: functional, organism-based, Rattus norvegicus; conditions: H9c2, 4 h
Trypanosoma cruzi [5] = test: GSK_TCAKS: pIC50 Trypanosoma cruzi Imaging: Amastigotes/Cell. […] Cells were then washed once with PBS before infection. T. cruzi trypomastigotes, collected at days 5 to 8 after infection from LLC-MK2 parasite infected cultures, were allowed to swim out for 4h at 37C from a centrifuged pellet (2,500 rpm/10 min/room temperature). Trypomastigotes were then collected and counted in a CASY Cell Counter. Trypomastigotes, in supplemented DMEM, were added to H9c2 cultures in a multiplicity of infection of 1 and incubated for 18 h. Cells were washed once with PBS before incubation of the infected H9c2 monolayer with trypsin (Life-Technologies) to detach cells from the flask. Cells were counted in a CASY Cell Counter using a 150 um capillary and their density set at 5 * 10^4 cells per mL in supplemented assay DMEM. Infected H9c2 were dispensed into 384-well poly-lysine coated assay plates at 50uL per well using a Multidrop Combi dispenser. After seeding them, the plates were incubated at 37C, 5% CO2 for 72h. Cultures were then fixed and stained by addition of 50 uL of a solution containing 8% formaldehyde and 4 uM DRAQ5 DNA dye (BioStatus, UK) per well. […] Five images were collected per well for reliable statistical analysis. Automated image analysis was performed with a script developed on Acapella High Content Imaging and Analysis Software (PerkinElmer). Output: number of amastigotes per cell as infection level measurement.; assay type: functional, organism-based, Rattus norvegicus; conditions: H9c2, 4 h
Leishmania donovani [6] = test: as §1, with “THP-1 Host” for “Infected”, “THP-1 cell count” for “Percent of infected macrophage cells”; assay type: functional, organism-based, Homo sapiens
[7] = test system: Trypanosoma brucei brucei; test: GSK_TCAKS: pIC50 Trypanosoma brucei viability assay using fluorescence intensity. Assay plates (1536-well) were prepared by dispensing 25nL of compound solution per well using an Echo acoustic dispenser (Labcyte).; assay type: functional, organism-based; conditions: Lister 427, 2 h
Trypanosoma cruzi [8] = test: as §2, with “H2C9” for “Trypanosoma cruzi”, “H9c2 Host Cardiomyocytes.” for “Infected Cells.”, “Number” for “percentage”, “H9c2 Host Cardiomyocytes nuclei to determine drug-related cytotoxicity.” for “infected cells per well as a second infection marker.”; assay type: functional, organism-based, Rattus norvegicus; conditions: H9c2, 4 h
Leishmania donovani [9] = test: GSK_TCAKS: pIC50 Leishmania donovani viability assay using fluorescence intensity. Assay plates (1536-well) were prepared by adding 30nL per well of compound. For single shot assay, the final compound concentration was 5uM. […] Briefly, eGFP LdBOB axenic amastigotes were harvested, fixed and counted in a CASY cell counter (Roche-Applied Science). A final concentration of 1.5 * 10^5 cells per well were prepared in amastigote media containing 500 U/mL penicillin/streptomycin (Invitrogen) and 6uL was dispensed to each experimental well using a Multidrop Combi dispenser (Thermo Scientific). 6uL of assay media was dispensed to control columns used as reference for 100% compound response. Following incubation for 72 h at 37C, 5% CO2, 2 uL of resazurin was added to each well at a final concentration of 0.5 mM in phosphate buffered saline (PBS) with IGEPAL (Sigma-Aldrich), 0.05% (v/v).; assay type: functional, organism-based
[10] = GSK_TCAKS: pIC50 HepG2 human cell line viability assay using luminiscence. […] Seeding density was checked to ensure that new mono-layers were not more than 50% confluent at the time of harvesting. Cell suspension was added to 500 mL of the same medium at a final density of 1.2 * 10^5 cells/mL. This cell suspension was dispensed (25 uL, 3000 cells per well) into 384-well clear-bottom plates using a Multidrop Combi dispenser. Prior to addition of the cell suspension, the screening compounds (250 nL) were pre-dispensed into the plates with an Echo liquid handler. Plates were incubated for 48 h at 37C, 5% CO2. After incubation, plates equilibrated at room temperature for 30 min before proceeding to develop the luminescent signal. The signal developer, CellTiter-Glo Reagent, was allowed to equilibrate at room temperature for 30 min and added to the plates (25uL per well) using a Multidrop Combi dispenser. Plates were left for 10 min at room temperature for stabilization and then read using a ViewLux.; assay type: toxicity, cell-based
[11] = test system: Trypanosoma brucei brucei; test: GSK_TCAKS: pIC50 Trypanosoma brucei viability assay using luminiscence. Assay plates (1536-well) were prepared. T. brucei cultures were harvested and counted in a CASY cell counter. A parasite suspension was prepared at a final concentration of 5 * 10^4 cells/mL in complete HMI9 medium and 6uL was dispensed to all wells containing compounds using a Multidrop Combi dispenser. 6uL of HMI9 media with 0.4% DMSO were dispensed to control columns. Plates were incubated for 24 h at 37C, 5% CO2 then tempered for 10 min at room temperature. ATP content was quantified by adding 4 uL of CellTiter-Glo Reagent (Promega) according to the manufacturer's instructions. Luminescence was measured using a ViewLux.; assay type: functional, organism-based; conditions: Lister 427, CASY
Leishmania donovani [12] = test: as §1, with “Amastigotes/Macrophages.” for “Infected Macrophages.”, “Average number” for “Percent”, “amastigotes per” for “infected”, “cell” for “cells”; assay type: functional, organism-based, Homo sapiens; conditions: THP-1

Sequence of Sterol 14-alpha demethylase (Q7Z1V1 whole entry): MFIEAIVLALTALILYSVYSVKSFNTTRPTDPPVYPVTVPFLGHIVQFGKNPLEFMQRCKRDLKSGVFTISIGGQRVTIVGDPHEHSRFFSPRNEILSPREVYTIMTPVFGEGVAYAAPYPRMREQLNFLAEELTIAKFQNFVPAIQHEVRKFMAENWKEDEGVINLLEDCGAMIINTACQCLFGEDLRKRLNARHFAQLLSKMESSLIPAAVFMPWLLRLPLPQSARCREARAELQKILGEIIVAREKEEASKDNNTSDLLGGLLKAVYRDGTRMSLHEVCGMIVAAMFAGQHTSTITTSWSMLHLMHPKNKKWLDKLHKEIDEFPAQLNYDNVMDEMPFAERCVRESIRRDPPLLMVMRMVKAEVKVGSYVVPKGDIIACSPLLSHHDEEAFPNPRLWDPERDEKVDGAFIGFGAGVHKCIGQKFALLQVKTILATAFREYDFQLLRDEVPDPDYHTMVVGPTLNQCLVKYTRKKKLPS

Row | SMILES | IC50 [1] [µM] | IC50 (Leishmania donovani [2]) [µM] | IC50 (Trypanosoma cruzi [3]) [µM] | IC50 (Trypanosoma cruzi [4]) [µM] | IC50 (Trypanosoma cruzi [5]) [µM] | IC50 (Leishmania donovani [6]) [µM] | IC50 [7] [µM] | IC50 (Trypanosoma cruzi [8]) [µM] | IC50 (Leishmania donovani [9]) [µM] | IC50 at 48 h [10] [µM] | IC50 [11] [µM] | IC50 (Leishmania donovani [12]) [µM]
1 | CC(C)(C)Nc1nc(-c2ccccn2)nc2ccccc12 | > 100 | 1.58 | 1.26 | 2 | 1.26 | 15.8 | 6.31 | 0.316 | 6.31 | 20 | 6.31 | 1.26
2 | O=C(Nc1nc(-c2ccccn2)cs1)c1ccc(S(=O)(=O)N2CCCCC2)cc1 | 6.31 | 1.26 | 0.631 | 0.631 | 0.398 | 12.6 | 0.398 | 2.51 | 0.631 | 63.1 | 0.631 | 1
3 | Cc1ccccc1NS(=O)(=O)c1ccc2[nH]cc(C(=O)NC3CCCCC3)c(=O)c2c1 | 10 | 39.8 | 10 | 15.8 | 10 | 31.6 | 0.251 | 25.1 | > 50.1 | 31.6 | 0.316 | 39.8
4 | Cc1ccc(NC(=O)c2ccc([N+](=O)[O-])s2)cc1S(=O)(=O)N1CCOCC1 | 20 | 3.16 | 0.2 | 0.398 | 0.251 | 39.8 | 0.251 | 5.01 | 2 | 15.8 | 0.794 | 2
5 | O=C(CN1CCC2(O)CCCCC2C1c1ccc2c(c1)OCO2)Nc1ccc(Cl)cc1Cl (centres undefined) | 12.6 | 3.16 | 12.6 | 5.01 | 3.16 | > 50.1 | 12.6 | > 50.1 | 5.01 | > 100 | 7.94 | 1.26
6 | CC1CCCN(S(=O)(=O)c2ccc(C(=O)Nc3nc(-c4ccccn4)cs3)cc2)C1 (centres undefined) | 2.51 | 0.251 | 0.398 | 0.501 | 0.251 | 5.01 | 0.2 | 3.16 | 1.58 | 39.8 | 0.398 | 0.158
7 | NC(=O)c1ccsc1NC(=O)c1ccc([N+](=O)[O-])s1 | > 100 | 1.58 | 0.0794 | 0.126 | 0.1 | 12.6 | 0.2 | > 50.1 | 0.316 | > 100 | 1.58 | 1.26
8 | COc1ccc(OC)c(NC(=O)c2ccc([N+](=O)[O-])o2)c1 | 10 | 31.6 | 3.16 | 12.6 | 7.94 | 20 | 0.0158 | 3.98 | 25.1 | 20 | 0.0631 | 15.8
9 | COCCn1c(-c2ccc3c(c2)OCO3)cnc1NCc1ccccc1OC | 5.01 | 10 | 7.94 | 20 | 7.94 | 39.8 | 20 | 39.8 | 12.6 | 39.8 | 25.1 | 5.01
10 | COCCn1c(-c2ccccc2)cnc1NCc1ccccc1OC | 7.94 | 6.31 | 14.1 | 15.8 | 6.31 | 50.1 | 25.1 | > 50.1 | > 50.1 | 20 | 15.8 | 6.31
11 | O=C(Nc1nccs1)c1ccccc1Cn1cc([N+](=O)[O-])cn1 | > 100 | > 50.1 | > 50.1 | > 50.1 | > 50.1 | > 50.1 | 0.316 | > 50.1 | > 50.1 | > 100 | 0.501 | > 50.1
12 | c1ccc(CNc2cccc3ccncc23)cc1 | 0.1 | 7.94 | 6.31 | 6.31 | 5.01 | 50.1 | 25.1 | > 50.1 | 10 | > 100 | > 39.8 | 5.01
13 | CCN(CC)S(=O)(=O)c1ccc(OC)c(NC(=O)c2ccc([N+](=O)[O-])s2)c1 | 31.6 | > 50.1 | 0.251 | 0.158 | 0.126 | > 50.1 | 0.398 | > 50.1 | > 50.1 | > 100 | 0.631 | > 50.1
14 | NS(=O)(=O)c1ccc(CNC(=O)c2ccc([N+](=O)[O-])s2)cc1 | 39.8 | 25.1 | 1 | 5.01 | 0.794 | 39.8 | 0.251 | 20 | 31.6 | 15.8 | 0.251 | 12.6
15 | Cc1ccccc1NS(=O)(=O)c1ccc2[nH]cc(C(=O)NC3CCCC3)c(=O)c2c1 | 12.6 | > 50.1 | 25.1 | 31.6 | 25.1 | 31.6 | 0.316 | 20 | > 50.1 | 25.1 | 0.631 | 39.8
16 | C[C@@H](Oc1cc(-n2cnc3ccc(C(O)CO)cc32)sc1C(N)=O)c1ccccc1C(F)(F)F (some centres undefined) | 25.1 | 20 | 5.01 | 20 | 15.8 | 15.8 | 0.398 | 0.631 | 15.8 | > 10 | 0.794 | 12.6
17 | COc1cccc(S(=O)(=O)Nc2ccc3c(c2)CC(N2CCC(NC(=O)C4CC4)CC2)C3)c1 (centres undefined) | 63.1 | > 50.1 | 39.8 | > 50.1 | 31.6 | > 50.1 | 1 | > 50.1 | > 50.1 | > 100 | 0.794 | 25.1
